Structure (SMILES) | melting point
CCC(=O)c1cc(C#N)c(=O)[nH]c1C | 259 to 263 °C
COc1cc(C)c(C(=O)c2c(Cl)cccc2Cl)c(OC(=O)Cc2ccccc2)c1OC | 106 °C
CCCCCCCCCCCCCC(c1ccccc1)S(=O)(=O)NC(=O)Nc1c(C(C)C)cccc1C(C)C (stereo not drawn) | 97 to 102 °C
CNc1ccc2c(c1)N1CCCN=C1S2 | 184 °C
CC(C)S(=O)(=O)n1c(N)nc2ccc(C(=CC(N)=O)c3ccccc3)cc21 | 211 to 212 °C
O=C1NCC=NN1c1cc(Cl)c(Sc2ccc(Cl)cc2)c(Cl)c1 | 224 to 225 °C
CN1C2CCC1CN(c1ccc(-c3ccccc3)cn1)C2 | 110 °C
Nc1cc(Cl)nn1-c1c(Cl)cc(C(F)(F)F)cc1Cl | 128 to 129 °C
CCCCCC1CCC(c2ccc(CC(=O)OC)cc2)CC1 (stereo not drawn) | 46 to 47 °C
COc1ccc(Nc2nc(Cl)nc(NC3CC3)n2)cc1Cl | 172 °C
COc1ccc([C@@H]2Sc3cc(Cl)ccc3N(CCCN3CCN(c4ccccc4)CC3)C(=O)[C@@H]2O)cc1 (relative stereo) | 70 to 71 °C
CC(C)(C)OC(=O)N1CCC(c2nc3cc(-c4ccc(C(N)=O)c(F)c4)ccc3o2)CC1 | 202 to 206 °C
COc1cc(Nc2nccc(Nc3ccc(OCC(=O)O)cc3)n2)cc(OC)c1OC | 159 °C
Cn1c(C(=O)O)cc2c3c(c(-c4ccccc4Cl)cc21)C(=O)NC3=O | 301 to 302 °C
CCc1cc2c(Sc3ccc(C)cc3)ncnc2s1 | 56 to 58 °C
CN(C)S(=O)(=O)Nc1cccc(-c2cccc(-c3nc(-c4ccc(C(F)(F)F)cc4)cc(C(F)(F)F)n3)c2)c1 | 113 °C
COC(=O)c1cc(O)n2nc(C)nc2n1 | 170 to 174 °C
CCOP(=O)(OCC)c1ccccc1 | 256 °C
CNCCC(O)(COc1ccccc1)c1ccccc1 (stereo not drawn) | 98 to 99 °C
Cn1c(C(F)(F)F)nn(-c2cc(NS(C)(=O)=O)c(C#N)cc2F)c1=O | 67 °C
OC[C@H]1C[C@@H]2c3ccccc3Oc3ccc(F)cc3[C@H]2N1 | 108 to 109 °C
Cc1cc(C)n(-c2nc(Nc3cccc4cccnc34)c3ccccc3n2)n1 | 184 to 185 °C
CCN1CCc2ccc(Nc3ncc(Cl)c(NCCC(=O)NC)n3)cc2CC1 | 206 °C
COC(=O)c1cccc(-c2ccccc2C#N)c1 | 83 to 85 °C
O=C1NCCc2cc(I)ccc21 | > 300 °C

Structure (SMILES) | melting point
Nc1ncnc2c1nc(Sc1cc3c(cc1Br)OCO3)n2CCCCCC(=O)NO | 160 to 169 °C
Cc1ccc(N2C(=O)C(O)=C(C(=O)c3ccc(C(C)C)cc3)C2c2ccc(OC(F)F)cc2)nn1 (stereo not drawn) | 263 to 265 °C
COc1ccc(C(=O)c2c(C)n(C(C)=O)c(=O)n2C(C)=O)cc1 | 123 to 125 °C
O=C(CC1CCCCC1)Nc1ccc2oc3c(c2c1)CCCCC3 | 188 to 189 °C
Cn1c(Sc2cc(C(F)(F)F)ccc2C(=O)O)n[nH]c1=O | 229 °C
Cc1ccc2nc(CCl)cn2c1 | 88 to 89.2 °C
Cc1cc(C)cc(COC(=O)[C@H](Cc2ccc3ccccc3c2)NC(=O)OC(C)(C)C)c1 | 84 to 86 °C
CC(C)Cn1cnc2c(N)nc3ccc(CCCCc4ccccc4)cc3c21 | 176 to 177 °C
CCOC(=O)C=CC(=O)c1ccc(Cl)cc1 | 62.5 to 63.5 °C
COc1ccc(S(=O)(=O)N(Cc2ccccc2)C(C)C(=O)NO)cc1 (stereo not drawn) | 127 to 129 °C
CCCN(CCC)Cc1ccccc1P(=NC(=O)OCC)(c1ccccc1)c1ccccc1 | 102 to 104 °C
CC(=O)Oc1c(CN(C)C)c2c(c3c1OC(C)(C)C3)C(c1ccccc1)=NC(C)(C)C2 | 125 to 126 °C
CCOC(Cc1ccc(NCCc2ccc(OS(C)(=O)=O)cc2)cc1)C(=O)O (stereo not drawn) | 130 to 134 °C
O=C(/C=C/[C@@H]1[C@H]2CC(=O)O[C@H]2C[C@H]1OC(=O)c1ccc(-c2ccccc2)cc1)CCc1ccccc1 | 129 to 130 °C
O=C(N[C@H](Cc1ccc(C(F)(F)F)cc1)[C@@H](O)c1ccc(F)cc1F)c1ccc(F)c2ccccc12 (racemic) | 194 to 195 °C
CCOC(=O)Cc1ccc(NC(=O)C(CCc2ccccc2)NS(=O)(=O)c2ccc(Cl)cc2)cc1 (racemic) | 114 to 115 °C
COc1cc2c(Oc3ccc4[nH]c(C)cc4c3)ncnc2cc1OCC1CCN(C)C(=O)C1 (stereo not drawn) | 250 to 251 °C
CCOC(=O)C(Oc1ccc(Cl)cc1)C(C)C (stereo not drawn) | 88 to 91 °C
CCOC(=O)c1cnc2occ(Br)c2c1 | 107 to 108 °C
CC(=O)N1[C@@H](C)[C@@H]2C(=O)N(Cc3ccccc3)C(=O)[C@@H]2[C@@H]1c1ccc(C#N)cc1 (racemic) | 107 to 109 °C
CCCCCCCCn1c(C2=CC(=O)c3ccccc3C2=O)ccc1C1=CC(=O)c2ccccc2C1=O | 75 to 76 °C
CCCCc1nc2cnc3cc(C)ccc3c2o1 | 52 to 55 °C
Cc1c(-c2ncncc2Cl)ssc1=S | 100 °C
Cc1c(Cl)cc2c(c1Cl)OC(C(F)(F)F)C(C(=O)O)=C2 (stereo not drawn) | 230 to 231 °C
CC(C)OC(=O)NNc1n[nH]c2cc(Cl)ccc12 | 184 to 185 °C

Structure (SMILES) | melting point
Cc1nc(C)c(CO)c(-c2ccc(F)cc2)n1 | 174 to 176 °C
CCOc1ccc(-c2noc3c(Cl)c(O)ccc23)c(F)c1 | 170 to 172 °C
O=[N+]([O-])c1c(Cl)cccc1NCCO | 78 °C
CCCC(CC(=O)NC(=O)OC(C)(C)C)Nc1ccc(Cl)cc1 (stereo not drawn) | 76 to 77 °C
CCc1ccc2nnc(C(=O)Oc3ccccc3)cc2c1 | 143 to 145 °C
CCCCC(=O)Nc1ccc(-c2ccc(-c3ccccc3Cl)n2Cc2cccc(N)n2)cc1 | 145 to 150 °C
C1=C(/C=C/c2ccccc2)CCN(Cc2c[nH]c3ccccc23)C1 | 191 to 193 °C
CN(C=O)C1c2ccccc2CCc2cc(Cl)ccc21 (stereo not drawn) | 122 to 124 °C
N#CCC1COc2ccccc2O1 (stereo not drawn) | 66 to 67 °C
Nc1c(CC(=O)O)cc(Cl)cc1Oc1ccccc1F | 154 to 156 °C
CSCC(C)(C)NC(=O)c1c(I)cccc1C(=O)Nc1ccc(Cn2nc(C(F)(F)F)cc2C(F)(F)F)cc1C | 83 to 87 °C
Cc1cccc2c(=O)[nH]c(C3CCC(N(C)C)CC3)nc12 (stereo not drawn) | 181 to 183 °C
CCCc1ccccc1OS(=O)(=O)c1ccc(N2CCN(C)C2=O)cc1 | 103 to 105 °C
N#Cc1cc(Cn2cncn2)cc(-c2ccc(F)cc2)c1 | 134 to 135 °C
NCCCCCCc1ccc(Cl)cc1 | 71 °C
COCCOc1ccccc1OCC(O)CN1C(C)CCCC1C (stereo not drawn) | 92 to 94 °C
CONc1ccc([N+](=O)[O-])cc1[N+](=O)[O-] | 110 to 112 °C
N#Cc1cn(-c2c(Cl)cccc2Cl)c(=O)[nH]c1=O | 273 to 274 °C
COc1cc(NC(C)=O)c(Cl)cc1C(=O)NN1CCN(Cc2cccs2)CC1 | 178 to 181 °C
CCOC(=O)C(=O)c1c[nH]c2c(CC)cccc12 | 152 to 154 °C
NS(=O)(=O)c1cc(C(=O)O)cc(OCc2ccccc2)c1-c1ccccc1 | 199 to 200 °C
CCC(=O)C1c2cccc(O)c2C(=O)c2c(O)cccc21 | 115 °C
CCOC(=O)COC(=O)c1cccnc1C#N | 74 °C

Source: a melting point compilation (Tetko et al.; mined from patent text by program, amines drawn as free bases though some values may be those of a salt)
